Laboratory results as given in US20250145631A1, “HETEROCYCLIC COMPOUND ACTING ON G12D MUTANT KRAS PROTEIN” (Astellas Pharma Inc., priority 2022, published 2025).

Assays:
[1] = system: phosphorylation of ERK (Thr202/Tyr204); assay: ERK phosphorylation inhibitory effect by Cell ELISA in AsPC-1 cells (Test Example 2); type: cell-based; settings: Homo sapiens, ASPC1, overnight treatment, Cell ELISA, read-out: IC50 (ERK phosphorylation inhibition)
Procedure, shortened: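 AsPC-1 cells (2.0×10^4/well, RPMI 1640 + 10% FBS) treated overnight with compounds (10 points, 10 μM to 0.3 nM final), then glyoxal-fixed and immunostained for phospho-ERK with IRDye 800CW secondary; 800-nm fluorescence read. IC50 by Sigmoid-Emax regression, normalized to DMSO (100%) and 1 μM trametinib (0%).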

[2] = system: human KRAS G12D mutant-positive PK-59 pancreatic cancer cell line-derived xenograft; assay: Anti-tumor activity in PK-59 xenograft mice (Test Example 4); type: in vivo; settings: 3 mg/kg into tail vein, once a week, twice in total; PK-59 xenograft nude mice
Protocol: PK-59 cells (RIKEN BioResearch Center, RCB1901) were cultured using RPMI 1640 medium containing 10% fetal bovine serum in the presence of 5% CO2 at 37° C. The PK-59 cells were collected and suspended in PBS, and after adding an equal amount of Matrigel (from Becton, Dickinson and Company), 4- to 5-week-old male nude mice (BALB/c-nu (nu/nu), from Charles River Laboratories Japan) were subcutaneously inoculated with the cell suspension of 1.0 to 2.0×10^7 cells/mL was subcutaneously inoculated in a volume of 100 μL per mouse. About two weeks after the inoculation, the mice were divided into groups so that all the groups had approximately the same tumor volume and body weight, and administration of test compounds was started on the next day. The study was conducted for 5 mice each of a vehicle group and test compound administration groups. The compounds were dissolved in a solvent containing ethanol (from FUJIFILM Wako Pure Chemical Corporation), a 5% glucose solution (from Otsuka Pharmaceutical), 1M hydrochloric acid (from Kanto Chemical Co., Inc.), 50% (2-hydroxypropyl)-P-cyclodextrin (HP-βCD) solution (from ROQUETTE), HCO-40 (from Nikko Chemicals Co., Ltd.) and 1M sodium hydroxide solution (from Kanto Chemical Co., Inc.) at a liquid amount ratio of 4:84.4:1.1:1:9:0.5. The test compounds dissolved in the respective solvents or the solvents were administered into tail vein. The administration was performed once a week and twice in total. The tumor sizes and the body weights were measured twice a week. The tumor volumes were calculated using the following equation.
[Tumor volume (mm^3)]=[Long diameter of tumor (mm)]×[Short diameter of tumor (mm)]^2×0.5
The tumor growth inhibition rate (%) by the test compounds were calculated with the tumor volumes of the test compound administration groups on the previous day of the start of the administration taken as 100% inhibition and the tumor volumes of the vehicle groups two weeks after the initial administration taken as 0% inhibition. In addition, when the tumor volume of a test compound administration group was smaller than the tumor volume on the previous day of the start of the administration, the tumor regression rate (%) by the test compound was calculated with the tumor volume on the previous day of the start of the administration taken as 0% regression and with the tumor volume 0 taken as 100% regression.

IC50 [1] | SMILES | Anti-Tumor Activity Two Weeks After Initial Administration (tumor regression rate) [2]
21 nM | Cc1c(F)cc2[nH]ncc2c1-c1c(C2CC2)cc2c(N3C[C@@H]4C[C@H]3CN4)nc(OC3CCOCC3)nc2c1OCc1ccc(C(=O)N2CCN(Cc3ccc4c(c3)n(C)c(=O)n4C3CCC(=O)NC3=O)C[C@@H]2C)cc1 (stereo partly drawn) [Example 8, 3-(5-{[(3S)-4-{4-[({(7M)-6-cyclopropyl-4-[(1S,4S)-2,5-diazabicyclo[2.2.1]heptan-2-yl]-7-(6-fluoro-5-methyl-1H-indazol-4-yl)-2-[(oxan-4-yl)oxy]quinazolin-8-yl}oxy)methyl]benzoyl}-3-methylpiperazin-1-yl]methyl}-3-methyl-2-oxo-2,3-dihydro-TH-benzimidazol-1-yl)piperidine-2,6-dione] | 28% regression
9 nM | CO[C@@H](C)COc1nc(N2C[C@@H]3C[C@H]2CN3)c2cc(C3CC3)c(-c3c(C)c(F)cc4[nH]ncc34)c(OCc3ccc(C(=O)N4CCN(Cc5ccc6c(c5)n(C)c(=O)n6C5CCC(=O)NC5=O)C[C@@H]4C)cc3)c2n1 (stereo partly drawn) [Example 10, 3-(5-{[(3S)-4-{4-[({(7M)-6-cyclopropyl-4-[(1S,4S)-2,5-diazabicyclo[2.2.1]heptan-2-yl]-7-(6-fluoro-5-methyl-1H-indazol-4-yl)-2-[(2S)-2-methoxypropoxy]quinazolin-8-yl}oxy)methyl]benzoyl}-3-methylpiperazin-1-yl]methyl}-3-methyl-2-oxo-2,3-dihydro-1H-benzimidazol-1-yl)piperidine-2,6-dione] | 28% regression
16 nM | CO[C@@H](C)COc1cc(O[C@H]2CCNC2)c2cc(C3CC3)c(-c3c(C)c(F)cc4[nH]ncc34)c(OCc3ccc(C(=O)N4CCN(Cc5ccc6c(c5)n(C)c(=O)n6C5CCC(=O)NC5=O)C[C@@H]4C)cc3)c2n1 (stereo partly drawn) [Example 12, 3-[5-({(3S)-4-[4-({[6-cyclopropyl-7-(6-fluoro-5-methyl-1H-indazol-4-yl)-2-[(2S)-2-methoxypropoxy]-4-{[(3S)-pyrrolidin-3-yl]oxy}quinolin-8-yl]oxy}methyl)benzoyl]-3-methylpiperazin-1-yl}methyl)-3-methyl-2-oxo-2,3-dihydro-1H-benzimidazol-1-yl]piperidine-2,6-dione] | 35% regression
24 nM | CO[C@@H](C)COc1cc(N2C[C@@H]3C[C@H]2CN3)c2cc(C3CC3)c(-c3c(C)c(F)cc4[nH]ncc34)c(OCc3ccc(C(=O)N4CCN(Cc5ccc6c(c5)n(C)c(=O)n6C5CCC(=O)NC5=O)C[C@@H]4C)cc3)c2n1 (stereo partly drawn) [Example 29, 3-(5-{[(3S)-4-{4-[({6-cyclopropyl-4-[(1S,4S)-2,5-diazabicyclo[2.2.1]heptan-2-yl]-7-(6-fluoro-5-methyl-1H-indazol-4-yl)-2-[(2S)-2-methoxypropoxy]quinolin-8-yl}oxy)methyl]benzoyl}-3-methylpiperazin-1-yl]methyl}-3-methyl-2-oxo-2,3-dihydro-1H-benzimidazol-1-yl)piperidine-2,6-dione] | 5% regression
